For series [1] the following is noted: for mass density: 298.15 K, 101.33 kPa, Liquid, Pycnometric method.
Series [2] can be described thus: Molar enthalpy of transition or fusion. The settings on record: Crystal; DSC.

Numbers after ± are expanded uncertainties.

As usually defined, the mass density is mass per unit of volume. In the case of `CC(C)=O` [acetone], the mass density in series [1] is 785.1 ± 1.4 kg/m3.
Still for that read-out and setting: in the case of `CC#N` [acetonitrile] it was 777 ± 1.4 kg/m3.
In the case of `CNC(=O)NC` [1,3-dimethylurea], in series [1] (Crystal, DTA), the Normal melting temperature is 103.20 ± 1.1 °C. The “Molar enthalpy of transition or fusion” value in series [2] is 3.05 ± 0.0932 kcal/mol.
For `CCC(C)O` (stereo not drawn) [butan-2-ol], in series [1], the mass density was found to be 802.4 ± 1.5 kg/m3.
Regarding `CCOC(C)=O` [ethyl acetate], the mass density in series [1] stood at 894.4 ± 1.6 kg/m3.
Same read-out and setting: in the case of `CCCCOC(C)=O` [butyl ethanoate] it was 875.8 ± 1.6 kg/m3; in that of `CC(C)O` [propan-2-ol], 781.2 ± 1.4 kg/m3.

(Values after the NIST ThermoML archive (doi:10.1016/j.jct.2015.12.032).)
